This test has as its target T1, human PD-1 / PD-L1-Ig binding on Jurkat cell line over-expressing human PD-1 (Jurkat-PD-1) (Homo sapiens, UniProt Q15116).
T1 construct: expressed in transfected cells; host or cells: Jurkat
In words: Jurkat-PD-1 Cell Binding High-Content Screening Assay (CBA). In kind it is cell-based. As to conditions: Jurkat-PD-1 cells, PE-labeled PD-L1-Ig 20 nM final; read-out: Jurkat HPD1_PDL1 IC50. A digest of the protocol:
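Read-out: high-content imaging of PE-tagged PD-L1-Ig bound to Jurkat cells overexpressing human PD-1, after fixation with 4% paraformaldehyde and Hoechst 33342 nuclear staining. Ligand was used at 20 nM final for 1 hour, after a 2 h compound exposure at 37° C in serum-containing DMEM.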

Structures are written as SMILES. Where a SMILES comes first, the peptide text is derived from it. Bridges are numbered along the chain shown (N, C = ends). [ ]: non-standard residue; d: D form. The star is where a group is joined. Phe(3-CF3) = N[C@@H](Cc1cccc(C(F)(F)F)c1)C(=O)O; Phe(4-COOH) = N[C@@H](Cc1ccc(C(=O)O)cc1)C(=O)O; Phg(4-Ph) = N[C@H](C(=O)O)c1ccc(-c2ccccc2)cc1; Bip = N[C@@H](Cc1ccc(-c2ccccc2)cc1)C(=O)O; Phe(3-OMe) = COc1cccc(C[C@H](N)C(=O)O)c1; Phe(4-Cl) = N[C@@H](Cc1ccc(Cl)cc1)C(=O)O; Phe(3-Me) = Cc1cccc(C[C@H](N)C(=O)O)c1; 2Nal = N[C@@H](Cc1ccc2ccccc2c1)C(=O)O; Val(3-OH) = CC(C)(O)[C@H](N)C(=O)O; Benzoyl(4-F) = O=C(c1ccc(F)cc1)*; 4Pal = N[C@@H](Cc1ccncc1)C(=O)O; Cha = N[C@@H](CC1CCCCC1)C(=O)O; Cit = NC(=O)NCCC[C@H](N)C(=O)O; dCha = N[C@H](CC1CCCCC1)C(=O)O; Ahp(2) = CCCCC[C@H](N)C(=O)O; Carboxymethyl = O=C(O)C*; Nle = CCCC[C@H](N)C(=O)O; Orn = NCCC[C@H](N)C(=O)O; Dab = NCC[C@H](N)C(=O)O; Nva = CCC[C@H](N)C(=O)O; Dap = NC[C@H](N)C(=O)O; NHCH2CH2OMe = COCCN*

Among the data in patent US20250163104A1, “MACROCYCLIC IMMUNOMODULATORS” (priority 2021, published 2025) are IC50 values, retold here.

T1 sequence (Q15116 25-288): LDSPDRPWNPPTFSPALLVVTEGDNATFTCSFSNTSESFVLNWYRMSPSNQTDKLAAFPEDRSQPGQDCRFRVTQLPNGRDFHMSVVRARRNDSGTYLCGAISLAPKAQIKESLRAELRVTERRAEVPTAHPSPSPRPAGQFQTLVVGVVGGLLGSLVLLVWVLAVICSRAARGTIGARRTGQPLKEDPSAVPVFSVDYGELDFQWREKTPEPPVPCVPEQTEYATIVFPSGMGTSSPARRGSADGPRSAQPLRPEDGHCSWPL

As for `CC(C)C[C@H]1NC(=O)[C@H](CCCN)NC(=O)[C@H](CCCNC(N)=O)NC(=O)[C@H](Cc2ccc(-c3ccccc3)cc2)NC(=O)[C@H](C(C)C)NC(=O)[C@H](Cc2c[nH]c3ccccc23)NC(=O)[C@H](CC(=O)O)NC(=O)[C@H](Cc2ccc(O)cc2)NC(=O)[C@H](CC(N)=O)NC(=O)CSC[C@@H](C(=O)N[C@@H](C)C(N)=O)NC(=O)[C@H]([C@@H](C)O)NC(=O)[C@H](C(C)C)NC(=O)[C@H](CC2CCCCC2)NC(=O)[C@H](CCN)NC1=O` [Compound 1161] ({CH2CO}-NYDWV[Bip][Cit][Orn][dL][Dab][Cha]VTCA-NH2; thioether N-14), the half-inhibitory concentration (IC50) worked out at 16.1 nM.

With `COc1cccc(C[C@@H]2NC(=O)[C@H](CN)NC(=O)CSC[C@@H](C(=O)N[C@@H](C)C(N)=O)NC(=O)[C@H]([C@@H](C)O)NC(=O)[C@H](C(C)C)NC(=O)[C@H](CC3CCCCC3)NC(=O)[C@H](CCN)NC(=O)[C@@H](CC(C)C)NC(=O)[C@H](CCCN)NC(=O)[C@H](CCCNC(N)=O)NC(=O)[C@H](Cc3ccc(-c4ccccc4)cc3)NC(=O)[C@H](C(C)C)NC(=O)[C@H](Cc3c[nH]c4ccccc34)NC(=O)[C@H](CC(=O)O)NC2=O)c1` [Compound 2091] ({CH2CO}-[Dap][Phe(3-OMe)]DWV[Bip][Cit][Orn][dL][Dab][Cha]VTCA-NH2; thioether N-14), the IC50 was found to be 24.3 nM.

As for `CC(C)C[C@H]1NC(=O)[C@H](CCCN)NC(=O)[C@H](CCCNC(N)=O)NC(=O)[C@H](Cc2ccc(-c3ccccc3)cc2)NC(=O)[C@H](C(C)C)NC(=O)[C@H](Cc2c[nH]c3ccccc23)NC(=O)[C@H](CC(=O)O)NC(=O)[C@H](Cc2ccc(Cl)cc2)NC(=O)[C@H](CN)NC(=O)CSC[C@@H](C(=O)N[C@@H](C)C(N)=O)NC(=O)[C@H]([C@@H](C)O)NC(=O)[C@H](C(C)C)NC(=O)[C@H](CC2CCCCC2)NC(=O)[C@H](CCN)NC1=O` [Compound 2102] ({CH2CO}-[Dap][Phe(4-Cl)]DWV[Bip][Cit][Orn][dL][Dab][Cha]VTCA-NH2; thioether N-14), the IC50 worked out at 45.6 nM.

On to `CC(C)C[C@H]1NC(=O)[C@H](CCCN)NC(=O)[C@H](CCC(=O)O)NC(=O)[C@H](Cc2ccc(-c3ccccc3)cc2)NC(=O)[C@H](C(C)C)NC(=O)[C@H](Cc2cccc(C(F)(F)F)c2)NC(=O)[C@H](CC(=O)O)NC(=O)[C@H](Cc2ccncc2)NC(=O)[C@H](CN)NC(=O)CSC[C@@H](C(=O)N[C@@H](C)C(N)=O)NC(=O)[C@H]([C@@H](C)O)NC(=O)[C@H](C(C)C)NC(=O)[C@H](CC2CCCCC2)NC(=O)[C@H](CCN)NC1=O` [Compound 1459] ({CH2CO}-[Dap][4Pal]D[Phe(3-CF3)]V[Bip]E[Orn][dL][Dab][Cha]VTCA-NH2; thioether N-14), for which the IC50 worked out at 17.7 nM.

In the case of `CC(C)C[C@@H]1NC(=O)[C@H](Cc2c[nH]c3ccccc23)NC(=O)[C@H](CC(=O)O)NC(=O)[C@H](Cc2ccncc2)NC(=O)[C@H](CN)NC(=O)CSC[C@@H](C(=O)NCC(N)=O)NC(=O)[C@H](CO)NC(=O)[C@H](C(C)C)NC(=O)[C@H](CC2CCCCC2)NC(=O)[C@H](CC(N)=O)NC(=O)[C@@H](CC(C)C)NC(=O)[C@H](CN)NC(=O)[C@H](C(C)C)NC(=O)[C@H](Cc2ccc(-c3ccccc3)cc2)NC1=O` [Compound 1395] ({CH2CO}-[Dap][4Pal]DWL[Bip]V[Dap][dL]N[Cha]VSCG-NH2; thioether N-14), the IC50 turned out to be 10.1 nM.

Regarding `CCCCC[C@@H]1NC(=O)[C@H](C(C)C)NC(=O)[C@@H](Cc2ccccc2)NC(=O)[C@H](CC(=O)O)NC(=O)[C@H](CCCNC(=N)N)NC(=O)[C@H](c2ccc(-c3ccccc3)cc2)NC(=O)[C@H](C(C)C)NC(=O)[C@H](Cc2c[nH]c3ccccc23)NC(=O)[C@H](CC(=O)O)NC(=O)[C@H](Cc2ccc(O)cc2)NC(=O)[C@H](Cc2ccccc2)NC(=O)CSC[C@@H](C(=O)NCC(N)=O)NC(=O)[C@H](CO)NC(=O)[C@H](C(C)C)NC1=O` [Compound 1000] ({CH2CO}-FYDWV[Phg(4-Ph)]RD[dF]V[Ahp(2)]VSCG-NH2; thioether N-14), the IC50 turned out to be 251 nM.

Consider `CC(C)C[C@H]1NC(=O)[C@H](CCCN)NC(=O)[C@H](CCN)NC(=O)[C@H](Cc2ccc(-c3ccccc3)cc2)NC(=O)[C@H](C(C)C)NC(=O)[C@H](Cc2c[nH]c3ccccc23)NC(=O)[C@H](CC(=O)O)NC(=O)[C@H](Cc2ccc(C(=O)O)cc2)NC(=O)[C@H](Cc2ccc(OCC(=O)O)cc2)NC(=O)CSC[C@@H](C(=O)N[C@@H](C)C(N)=O)NC(=O)[C@H]([C@@H](C)O)NC(=O)[C@H](C(C)C)NC(=O)[C@H](CC2CCCCC2)NC(=O)[C@H](CCN)NC1=O` [Compound 1383], for which the half-maximal inhibitory concentration (IC50) is 19.1 nM.

Regarding `CC(C)C[C@@H]1NC(=O)[C@H](Cc2c[nH]c3ccccc23)NC(=O)[C@H](CC(=O)O)NC(=O)[C@H](Cc2ccc(OCC(=O)O)cc2)NC(=O)[C@H](CN)NC(=O)CSC[C@@H](C(=O)NCC(N)=O)NC(=O)[C@H](CO)NC(=O)[C@H](C(C)C)NC(=O)[C@H](CC(C)C)NC(=O)[C@H](CCN)NC(=O)[C@@H](CC(C)C)NC(=O)[C@H](CCCN)NC(=O)[C@H](C(C)C)NC(=O)[C@H](Cc2ccc(-c3ccccc3)cc2)NC1=O` [Compound 1257] ({CH2CO}-[Dap]Y(Carboxymethyl)DWL[Bip]V[Orn][dL][Dab]LVSCG-NH2; thioether N-14), the IC50 stood at 5.6 nM.

Turning to `CCCC[C@@H]1NC(=O)[C@H](CC(N)=O)NC(=O)[C@@H](CC(C)C)NC(=O)[C@H](CCCN)NC(=O)[C@H](C(C)C)NC(=O)[C@H](Cc2ccc(-c3ccccc3)cc2)NC(=O)[C@H](CC(C)C)NC(=O)[C@H](Cc2c[nH]c3ccccc23)NC(=O)[C@H](CC(=O)O)NC(=O)[C@H](Cc2ccc(C(=O)O)cc2)NC(=O)[C@H](Cc2ccc(OCC(=O)O)cc2)NC(=O)CSC[C@@H](C(=O)NCC(N)=O)NC(=O)[C@H](CO)NC(=O)[C@H](C(C)C)NC1=O` [Compound 1340] ({CH2CO}-Y(Carboxymethyl)[Phe(4-COOH)]DWL[Bip]V[Orn][dL]N[Nle]VSCG-NH2; thioether N-14), the half-maximal inhibitory concentration (IC50) was found to be 21.7 nM.

Turning to `Cc1cccc(C[C@@H]2NC(=O)[C@H](CC(=O)O)NC(=O)[C@H](Cc3ccc(OCC(=O)O)cc3)NC(=O)[C@H](CCCNC(=N)N)NC(=O)CSC[C@@H](C(N)=O)NC(=O)[C@H](CCCNC(=O)c3ccc(F)cc3)NC(=O)[C@H](C(C)C)NC(=O)[C@H](CC3CCCCC3)NC(=O)[C@H](CCN)NC(=O)[C@@H](CC(C)C)NC(=O)[C@H](CCCN)NC(=O)[C@H](Cc3ccc(OCC(=O)O)cc3)NC(=O)[C@H](Cc3ccc(-c4ccccc4)cc3)NC(=O)[C@H](Cc3ccc(O)cc3)NC2=O)c1` [Compound 2053] ({CH2CO}-RY(Carboxymethyl)D[Phe(3-Me)]Y[Bip]Y(Carboxymethyl)[Orn][dL][Dab][Cha]V[Orn](Benzoyl(4-F))C-NH2; thioether N-14), the half-maximal inhibitory concentration (IC50) was determined as 39.4 nM.

Take `CC[C@H](C)[C@@H]1NC(=O)[C@H](Cc2ccc(-c3ccccc3)cc2)NC(=O)[C@H](C(C)C)NC(=O)[C@H](Cc2cccc(C)c2)NC(=O)[C@H](CC(=O)O)NC(=O)[C@H](Cc2ccncc2)NC(=O)[C@H](CN)NC(=O)CSC[C@@H](C(N)=O)NC(=O)[C@H]([C@@H](C)O)NC(=O)[C@H](C(C)C)NC(=O)[C@H](CC(C)C)NC(=O)[C@H](CCN)NC(=O)[C@@H](CC(C)C)NC(=O)[C@H](CCCN)NC1=O` [Compound 1554] ({CH2CO}-[Dap][4Pal]D[Phe(3-Me)]V[Bip]I[Orn][dL][Dab]LVTC-NH2; thioether N-14): the half-maximal inhibitory concentration (IC50) came to 96.2 nM.

With `CC(C)C[C@H]1NC(=O)[C@H](CCCN)NC(=O)[C@H](CCC(=O)O)NC(=O)[C@H](Cc2ccc(-c3ccccc3)cc2)NC(=O)[C@H](C(C)C)NC(=O)[C@H](Cc2ccc3ccccc3c2)NC(=O)[C@H](CC(=O)O)NC(=O)[C@H](Cc2ccc(OCC(=O)O)cc2)NC(=O)[C@H](CN)NC(=O)CSC[C@@H](C(=O)N[C@@H](C)C(N)=O)NC(=O)[C@H]([C@@H](C)O)NC(=O)[C@H](C(C)C)NC(=O)[C@H](CC2CCCCC2)NC(=O)[C@H](CCN)NC1=O` [Compound 2142] ({CH2CO}-[Dap]Y(Carboxymethyl)D[2Nal]V[Bip]E[Orn][dL][Dab][Cha]VTCA-NH2; thioether N-14), the half-inhibitory concentration (IC50) amounted to 543 nM.

For `CC(C)[C@@H]1NC(=O)[C@H](Cc2c[nH]c3ccccc23)NC(=O)[C@H](CC(=O)O)NC(=O)[C@H](Cc2ccc(O)cc2)NC(=O)[C@H](CC(N)=O)NC(=O)CSC[C@@H](C(=O)N[C@@H](C)C(N)=O)NC(=O)[C@H]([C@@H](C)O)NC(=O)[C@H](C(C)C)NC(=O)[C@H](CC2CCCCC2)NC(=O)[C@H](CCN)NC(=O)[C@@H](CC2CCCCC2)NC(=O)[C@H](CCCN)NC(=O)[C@H](CCC(=O)O)NC(=O)[C@H](Cc2ccc(-c3ccccc3)cc2)NC1=O` [Compound 1442] ({CH2CO}-NYDWV[Bip]E[Orn][dCha][Dab][Cha]VTCA-NH2; thioether N-14), the IC50 was 15.9 nM.

For `CCC[C@@H]1NC(=O)CSC[C@@H](C(=O)N[C@@H](CCN)C(=O)NCCOC)NC(=O)[C@H](CO)NC(=O)[C@H](C(C)(C)O)NC(=O)[C@H](CC2CCCCC2)NC(=O)[C@H](CCN)NC(=O)[C@@H](CC(C)C)NC(=O)[C@H](CCCN)NC(=O)[C@H](Cc2ccc(OCC(=O)O)cc2)NC(=O)[C@H](Cc2ccc(-c3ccccc3)cc2)NC(=O)[C@H](Cc2ccc(OCC(=O)O)cc2)NC(=O)[C@H](Cc2cccc(C)c2)NC(=O)[C@H](CC(=O)O)NC(=O)[C@H](Cc2ccc(OCC(=O)O)cc2)NC1=O` [Compound 2074] ({CH2CO}-[Nva]Y(Carboxymethyl)D[Phe(3-Me)]Y(Carboxymethyl)[Bip]Y(Carboxymethyl)[Orn][dL][Dab][Cha][Val(3-OH)]SC[Dab]-NHCH2CH2OMe; thioether N-14), the IC50 stood at 4.4 nM.

With `Cc1cccc(C[C@@H]2NC(=O)[C@H](CC(=O)O)NC(=O)[C@H](Cc3ccc(OCC(=O)O)cc3)NC(=O)[C@H](Cc3ccncc3)NC(=O)CSC[C@@H](C(=O)N[C@@H](C)C(N)=O)NC(=O)[C@H]([C@@H](C)O)NC(=O)[C@H](C(C)C)NC(=O)[C@H](CC3CCCCC3)NC(=O)[C@H](CCN)NC(=O)[C@@H](CC(C)C)NC(=O)[C@H](CCCN)NC(=O)[C@H](CCCNC(N)=O)NC(=O)[C@H](Cc3ccc(-c4ccccc4)cc3)NC(=O)[C@H](C(C)C)NC2=O)c1` [Compound 1196], the IC50 came to 8.2 nM.

The term IC50 denotes the concentration that gives 50% inhibition.
